Test results from the supplement of paper PMC10307832.

What was measured:
Test in all cases: relative viability (nuclei count vs DMSO), 5 days (fraction); higher = more cells survive
[1] = compound: C1CNCCC1C2=CC(=NN2)C3=CC=NC=C3 + COc1cccc2cc(-c3nc([C@H]4CC[C@H](C(=O)O)CC4)n4ncnc(N)c34)[nH]c12 [OSI-027] (partner 0.5 µM)
In short: (§1)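 Relative viability is defined as nuclei in treated wells over nuclei in vehicle wells. Duplicate plates were run and medians reported. Lung cancer cell lines in 1536-well plates were dosed by pin tool one day after seeding, with one drug or with a fixed anchor-drug dose plus five library-drug doses (not always all listed) in √10 steps, and nuclei were counted after 5 days.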

Tanzisertib + Phenformin = compound: O[C@H]1CC[C@H](Nc2ncc3nc(Nc4c(F)cc(F)cc4F)n([C@H]4CCOC4)c3n2)CC1 [Tanzisertib] + N=C(N)NC(=N)NCCc1ccccc1 [Phenformin] (partner 250 µM)
In short: as §1

Tanzisertib + OSI-027 = compound: O[C@H]1CC[C@H](Nc2ncc3nc(Nc4c(F)cc(F)cc4F)n([C@H]4CCOC4)c3n2)CC1 [Tanzisertib] + COc1cccc2cc(-c3nc([C@H]4CC[C@H](C(=O)O)CC4)n4ncnc(N)c34)[nH]c12 [OSI-027] (partner 0.5 µM)
In short: as §1

[2] = compound: C[C@@H](N)c1ccc(C(=O)Nc2ccnc3[nH]ccc23)cc1 + NC(=O)Nc1cc(-c2cccc(F)c2)sc1C(=O)N[C@H]1CCCNC1 [AZD7762] (partner 0.2 µM)
In short: as §1

Row | Cell Line | relative viability ([1]; first compound 0.08 µM) | relative viability ([1]; first compound 0.8 µM) | relative viability ([1]; first compound 2.53 µM) | relative viability ([1]; first compound 8 µM) | relative viability (Tanzisertib + Phenformin; first compound 0.08 µM) | relative viability (Tanzisertib + Phenformin; first compound 0.253 µM) | relative viability (Tanzisertib + Phenformin; first compound 0.8 µM) | relative viability (Tanzisertib + Phenformin; first compound 2.53 µM) | relative viability (Tanzisertib + Phenformin; first compound 8 µM) | relative viability (Tanzisertib + OSI-027; first compound 0.08 µM) | relative viability (Tanzisertib + OSI-027; first compound 0.253 µM) | relative viability (Tanzisertib + OSI-027; first compound 0.8 µM) | relative viability (Tanzisertib + OSI-027; first compound 2.53 µM) | relative viability (Tanzisertib + OSI-027; first compound 8 µM) | relative viability ([2]; first compound 0.04 µM) | relative viability ([2]; first compound 0.1265 µM) | relative viability ([2]; first compound 0.4 µM) | relative viability ([2]; first compound 1.265 µM) | relative viability ([2]; first compound 4 µM)
1 | SW 900 | 0.51 | 0.569 | 0.713 | 0.464 | 0.725 | 0.601 | 0.749 | 0.587 | 0.512 | 0.644 | 0.588 | 0.511 | 0.866 | 0.556 | 0.772 | 0.698 | 0.661 | 0.777 | 0.878
2 | CAL-12T | 0.823 | 0.866 | 0.84 | 0.839 | 0.517 | 0.566 | 0.625 | 0.628 | 0.556 | 0.612 | 0.633 | 0.62 | 0.748 | 0.635 | 0.625 | 0.682 | 0.606 | 0.784 | 0.803
3 | NCI-H650 | 0.513 | 0.58 | 0.505 | 0.543 | 0.472 | 0.476 | 0.461 | 0.526 | 0.327 | 0.517 | 0.661 | 0.508 | 0.624 | 0.441 |  | 1.09 | 0.992 |  | 0.886
4 | NCI-H1355 | 0.446 | 0.372 | 0.472 | 0.476 | 0.517 | 0.44 | 0.503 | 0.472 | 0.431 | 0.479 | 0.425 | 0.445 | 0.423 | 0.371 | 0.761 | 0.819 | 0.901 | 0.91 | 0.871
5 | NCI-H838 | 0.385 | 0.423 | 0.394 | 0.491 | 0.666 | 0.608 | 0.628 | 0.587 | 0.541 | 0.401 | 0.426 | 0.453 | 0.418 | 0.4 | 0.848 | 0.957 | 0.936 | 0.852 | 0.752
6 | LK-2 | 0.264 | 0.284 | 0.223 | 0.209 | 0.77 | 0.517 | 0.559 | 0.548 | 0.228 | 0.26 | 0.209 | 0.193 | 0.16 | 0.186 | 0.493 | 0.385 | 0.603 | 0.434 | 0.621
7 | NCI-H322M | 0.608 | 0.532 | 0.653 | 0.592 | 0.788 | 0.728 | 0.832 | 0.81 | 0.721 | 0.636 | 0.623 | 0.539 | 0.6 | 0.538 | 0.544 | 0.66 | 0.647 | 0.837 | 0.777
8 | NCI-H1395 | 0.603 | 0.57 | 0.71 | 0.694 | 0.481 | 0.454 | 0.427 | 0.456 | 0.396 | 0.697 | 0.714 | 0.622 | 0.692 | 0.518 | 0.396 | 0.391 | 0.395 |  | 0.39
9 | NCI-H441 | 0.536 | 0.769 | 0.736 | 0.867 | 1.12 | 0.723 | 0.725 | 0.853 | 0.817 | 0.855 | 0.505 | 0.467 | 0.444 | 0.403 | 1.29 | 0.841 | 1.49 | 1.21 | 1.13
